From patent US12486273B2 (Hoffmann-La Roche Inc., priority 2019, dated 2025) come the findings set out here.

One may read the IC20 as the concentration needed for an effect of 20%. A high value points to a need for much substance.

The target of one series is human TLR8 (Homo sapiens (Human), UniProt Q9NR97). Nature of the series: HEK293-Blue-hTLR-8 cells assay. It counts as cell-based. To be noted: HEK293-Blue-hTLR8 cells, R848 stimulation, 20 hrs, SEAP reporter; read-out: HEK/hTLR8 IC50.
The nature of series [1]: Human microsomal stability assay. To be noted: human liver microsomes, 1 μM test compound, 37° C., pH 7.4. The series is classed as in vitro ADME. The protocol:
Human Microsomal Stability Assay
Human liver microsomes (Cat. NO.: 452117, Corning, USA) were preincubated with test compound for 10 minutes at 37° C. in 100 mM potassium phosphate buffer, pH 7.4. The reactions were initiated by adding NADPH regenerating system. The final incubation mixtures contained 1 μM test compound, 0.5 mg/mL liver microsomal protein, 1 mM MgCl2, 1 mM NADP, 1 unit/mL isocitric dehydrogenase and 6 mM isocitric acid in 100 mM potassium phosphate buffer, pH 7.4. After incubation times of 0, 3, 6, 9, 15 and 30 minutes at 37° C., 300 μL of cold ACN (including internal standard) was added to 100 μL incubation mixture to terminate the reaction. Following precipitation and centrifugation, 100 μL supernatant will be taken out and added 300 μL water. The amount of compound remaining in the samples was determined by LC-MS/MS. Controls of no NADPH regenerating system at zero and 30 minutes were also prepared and analyzed. The results were categorized as: low (<7.0 mL/min/kg), medium (7.0-16.2 mL/min/kg) and high (16.2-23.2 mL/min/kg).

A further series has as its target hERG channel (Homo sapiens (Human), UniProt Q12809). The series is described as follows: hERG channel inhibition assay. The series is classed as cell-based. The conditions noted are these: patch-clamp; for IC50: CHO hERG cells; for IC20: human, CHO cells stably expressing hERG. As for the experimental part: hERG Channel Inhibition Assay
The hERG K^+ channels were cloned in humans and stably expressed in a CHO (Chinese hamster ovary) cell line. CHOhERG cells were used for patch-clamp (voltage-clamp, whole-cell) experiments. Cells were stimulated by a voltage pattern to activate hERG channels and conduct IKhERG Currents (rapid delayed outward rectifier potassium current of the hERG channel). After the cells were stabilized for a few minutes, the amplitude and kinetics of IKhERG were recorded at a stimulation frequency of 0.1 Hz (6 bpm). Thereafter, the test compound was added to the preparation at increasing concentrations. For each concentration, an attempt was made to reach a steady-state effect, usually, this was achieved within 3-10 min at which time the next highest concentration was applied. The amplitude and kinetics of IKhERG are recorded in each concentration of the drug which were compared to the control values (taken as 100%). (references: Redfern WS, Carlsson L, Davis A S, Lynch W G, MacKenzie I, Palethorpe S, Siegl P K, Strang I, Sullivan A T, Wallis R, Camm A J, Hammond T G. 2003; Relationships between preclinical cardiac electrophysiology, clinical QT interval prolongation and torsade de pointes for a broad range of drugs: evidence for a provisional safety margin in drug development. Cardiovasc. Res. 58:32-45, Sanguinetti M C, Tristani-Firouzi M. 2006; hERG potassium channels and cardiac arrhythmia. Nature 440:463-469, Webster R, Leishman D, Walker D. 2002; Towards a drug concentration effect relationship for QT prolongation and torsades de pointes. Curr. Opin. Drug Discov. Devel. 5:116-26).
Background: Block of hERG is tested as a sign of cardiac risk.

Sequence of human TLR8 (Q9NR97 27-1041): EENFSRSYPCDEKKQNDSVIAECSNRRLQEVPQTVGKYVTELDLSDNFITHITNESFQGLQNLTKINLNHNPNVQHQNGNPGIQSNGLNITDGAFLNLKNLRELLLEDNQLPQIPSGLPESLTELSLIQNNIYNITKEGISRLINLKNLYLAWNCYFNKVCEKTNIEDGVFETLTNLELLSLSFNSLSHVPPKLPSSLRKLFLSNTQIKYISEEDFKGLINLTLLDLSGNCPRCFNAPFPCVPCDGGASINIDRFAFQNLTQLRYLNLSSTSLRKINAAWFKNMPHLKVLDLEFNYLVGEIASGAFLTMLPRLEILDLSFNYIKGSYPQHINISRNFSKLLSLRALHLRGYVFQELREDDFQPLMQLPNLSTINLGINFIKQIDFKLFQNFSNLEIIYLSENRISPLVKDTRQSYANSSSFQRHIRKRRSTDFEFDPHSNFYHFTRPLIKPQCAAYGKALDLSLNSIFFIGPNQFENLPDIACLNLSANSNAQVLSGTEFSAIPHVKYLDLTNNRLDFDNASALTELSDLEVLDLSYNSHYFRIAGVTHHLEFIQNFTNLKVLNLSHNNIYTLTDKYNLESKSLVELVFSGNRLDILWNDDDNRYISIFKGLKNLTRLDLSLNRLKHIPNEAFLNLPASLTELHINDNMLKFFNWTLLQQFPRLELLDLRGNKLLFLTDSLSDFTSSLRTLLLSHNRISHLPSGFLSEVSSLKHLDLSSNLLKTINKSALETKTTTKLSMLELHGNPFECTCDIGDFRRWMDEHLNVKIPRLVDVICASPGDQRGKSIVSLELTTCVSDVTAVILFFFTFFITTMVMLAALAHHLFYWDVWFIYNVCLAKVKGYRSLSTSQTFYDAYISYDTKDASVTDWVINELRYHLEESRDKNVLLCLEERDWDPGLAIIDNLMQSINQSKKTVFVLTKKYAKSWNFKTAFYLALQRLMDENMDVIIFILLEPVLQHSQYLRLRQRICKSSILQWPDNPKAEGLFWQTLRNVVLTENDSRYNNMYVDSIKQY
Sequence of hERG channel (Q12809 whole entry): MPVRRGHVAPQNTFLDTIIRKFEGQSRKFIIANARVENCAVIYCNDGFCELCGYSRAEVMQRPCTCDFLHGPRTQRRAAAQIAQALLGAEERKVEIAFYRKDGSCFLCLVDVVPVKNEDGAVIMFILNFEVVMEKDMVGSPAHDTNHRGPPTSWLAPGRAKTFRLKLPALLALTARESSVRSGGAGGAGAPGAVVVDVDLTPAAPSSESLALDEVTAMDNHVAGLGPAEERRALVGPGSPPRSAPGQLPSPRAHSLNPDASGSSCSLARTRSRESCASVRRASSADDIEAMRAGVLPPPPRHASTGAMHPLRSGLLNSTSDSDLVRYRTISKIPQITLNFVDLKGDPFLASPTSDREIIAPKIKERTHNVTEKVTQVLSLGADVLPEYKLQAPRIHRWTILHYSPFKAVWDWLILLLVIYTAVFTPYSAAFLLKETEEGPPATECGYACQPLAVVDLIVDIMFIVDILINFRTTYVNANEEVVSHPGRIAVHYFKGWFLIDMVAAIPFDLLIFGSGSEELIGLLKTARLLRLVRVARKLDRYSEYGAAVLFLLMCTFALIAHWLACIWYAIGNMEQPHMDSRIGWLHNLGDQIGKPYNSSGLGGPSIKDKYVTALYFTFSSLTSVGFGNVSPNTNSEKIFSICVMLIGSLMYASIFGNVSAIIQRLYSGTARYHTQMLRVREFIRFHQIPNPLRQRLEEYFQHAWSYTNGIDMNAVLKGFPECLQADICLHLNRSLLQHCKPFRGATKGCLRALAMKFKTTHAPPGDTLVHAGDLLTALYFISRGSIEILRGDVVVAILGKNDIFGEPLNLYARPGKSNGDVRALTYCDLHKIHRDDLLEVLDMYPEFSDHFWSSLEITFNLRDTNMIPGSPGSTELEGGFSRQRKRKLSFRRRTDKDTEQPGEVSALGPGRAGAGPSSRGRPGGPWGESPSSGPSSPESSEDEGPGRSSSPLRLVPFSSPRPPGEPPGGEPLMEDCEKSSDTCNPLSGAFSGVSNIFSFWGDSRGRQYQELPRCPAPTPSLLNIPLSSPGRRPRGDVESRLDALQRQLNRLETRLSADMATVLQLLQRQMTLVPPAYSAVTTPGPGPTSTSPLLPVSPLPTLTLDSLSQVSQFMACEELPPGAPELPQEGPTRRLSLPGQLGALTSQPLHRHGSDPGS

With `C[C@@H]1CN(c2ccc(C#N)c3ncccc23)C[C@@H]2C[C@@H](Nc3ccc4c(n3)CNCC4)CN21` [Example 3, 5-[(4R,7R,8aS)-4-methyl-7-(5,6,7,8-tetrahydro-1,7-naphthyridin-2-ylamino)-3,4,6,7,8,8a-hexahydro-1H-pyrrolo[1,2-a]pyrazin-2-yl]quinoline-8-carbonitrile], the IC50 at human TLR8 was found to be 0.0184 µM. Further, in series [1], the “CL (h)” value was 6.7 mL/min/kg. Besides, on hERG channel, the IC50 was above 20 µM and the IC20 was above 10 µM.

Take `C[C@@H]1CN(c2ccc(C#N)c3ncccc23)C[C@@H]2C[C@@H](Nc3cc4c(cn3)CCNC4)CN21` [Example 2, 5-[(4R,7R,8aS)-4-methyl-7-(5,6,7,8-tetrahydro-2,6-naphthyridin-3-ylamino)-3,4,6,7,8,8a-hexahydro-1H-pyrrolo[1,2-a]pyrazin-2-yl]quinoline-8-carbonitrile]: the IC50 on human TLR8 was 0.0125 µM. The “CL (h)” value in series [1] was found to be 7.3 mL/min/kg. On hERG channel, this compound returned an IC50 above 20 µM and an IC20 above 10 µM.

Consider `[2H]c1ccc2c(N3C[C@@H]4C[C@H](N5CCNCC5)CN4[C@H](C)C3)ccc(C#N)c2n1` [Example 15, 5-[(4R,7S,8aS)-4-methyl-7-piperazin-1-yl-3,4,6,7,8,8a-hexahydro-1H-pyrrolo[1,2-a]pyrazin-2-yl]-2-deuterio-quinoline-8-carbonitrile], for which the IC50 at human TLR8 amounted to 0.0203 µM. For the same compound, in series [1], the “CL (h)” value stood at 8.0 mL/min/kg. On hERG channel, this compound returned an IC50 above 20 µM and an IC20 above 10 µM.

In the case of `C[C@@H]1CN(c2ccc(C#N)c3ncccc23)C[C@@H]2C[C@@H](Nc3ccc4c(n3)CCNC4)CN21` [Example 1, 5-[(4R,7R,8aS)-4-methyl-7-(5,6,7,8-tetrahydro-1,6-naphthyridin-2-ylamino)-3,4,6,7,8,8a-hexahydro-1H-pyrrolo[1,2-a]pyrazin-2-yl]quinoline-8-carbonitrile], the IC50 at human TLR8 turned out to be 0.0134 µM. The “CL (h)” value in series [1] is on record as 9.1 mL/min/kg. At hERG channel, this compound showed an IC50 above 20 µM and an IC20 above 10 µM.

In the case of `[2H]c1ccc2c(N3C[C@@H]4C[C@H](N5CCC(N(C)C)CC5)CN4[C@H](C)C3)ccc(C#N)c2n1` [Example 20, 5-[(4R,7S,8aS)-7-[4-(dimethylamino)-1-piperidyl]-4-methyl-3,4,6,7,8,8a-hexahydro-1H-pyrrolo[1,2-a]pyrazin-2-yl]-2-deuterio-quinoline-8-carbonitrile], on human TLR8, the IC50 amounted to 0.0183 µM. In addition, the “CL (h)” value in series [1] was found to be 6.2 mL/min/kg. At hERG channel, the IC50 is above 20 µM and the IC20 was above 10 µM.
